Columns and labels:
[1] = biological target: T1, hSGLT1 (Homo sapiens, UniProt P13866); test: [14C]-AMG uptake assay in HEK293-hSGLT1 cells; assay type: cell-based; details: HEK293-hSGLT1 stable cell line
T1 construct: FLAG; expressed in transfected cells
T1 sequence (P13866 1-664): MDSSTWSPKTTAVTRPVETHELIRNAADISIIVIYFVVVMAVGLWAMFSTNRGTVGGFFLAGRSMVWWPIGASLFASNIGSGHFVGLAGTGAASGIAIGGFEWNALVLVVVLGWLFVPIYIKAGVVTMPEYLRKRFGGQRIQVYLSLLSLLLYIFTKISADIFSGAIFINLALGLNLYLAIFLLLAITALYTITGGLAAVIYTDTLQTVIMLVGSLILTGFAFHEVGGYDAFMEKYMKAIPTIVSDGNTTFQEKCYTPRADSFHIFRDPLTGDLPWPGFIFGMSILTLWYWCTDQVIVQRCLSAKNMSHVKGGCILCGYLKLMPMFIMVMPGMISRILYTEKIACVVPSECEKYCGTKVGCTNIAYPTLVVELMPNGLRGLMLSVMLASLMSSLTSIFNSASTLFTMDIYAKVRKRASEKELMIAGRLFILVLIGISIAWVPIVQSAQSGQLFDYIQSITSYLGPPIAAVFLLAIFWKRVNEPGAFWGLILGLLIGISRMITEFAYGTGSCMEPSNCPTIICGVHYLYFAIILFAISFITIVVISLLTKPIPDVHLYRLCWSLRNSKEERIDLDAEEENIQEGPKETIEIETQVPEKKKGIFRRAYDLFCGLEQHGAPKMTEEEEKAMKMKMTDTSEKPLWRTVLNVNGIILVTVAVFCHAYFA
Procedure: (§1) For the evaluation of the pharmaceutical efficacies of the compounds as a SGLT inhibitor, a glucose uptake assay was conducted by using stable cell lines, i.e., HEK293-hSGLT1 and HEK293-hSGLT2. The stable cell lines were prepared by transfection of human embryonic kidney 293 (HEK293) cell line with pcDNA3.1(+)-FLAG-hSGLT1 and pcDNA3.1(+)-FLAG-hSGLT2 vectors.
(§2) The cells were seeded in a 96-well poly-D-lysine (PDL) coated plate at a density of 2.5×10^4 cells/well and cultured in a cell culture incubator for one day at 37° C., 5% CO2. Then, the cells were washed once with 1× assay buffer (140 mM NaCl, 5 mM KCl, 2.5 mM CaCl2, 1 mM MgSO4.7H2O, 1 mM KH2PO4, 10 mM HEPES) and pre-incubated in a cell culture incubator for 30 minutes with 1× assay buffer at 37° C., 5% CO2. Each compound obtained in the Examples was 10-fold diluted with 1× assay buffer. The diluted compounds were added to the plate at various concentrations and then cultured in a cell culture incubator for 1 hour at 37° C., 5% CO2.
(§3) Radioactive [^14C]-alpha-methyl-D-glucopyranoside (Cat# NEC659250UC, Perkin Elmer) was diluted with 1× assay buffer at a concentration of 0.2 μCi. The diluted [^14C]-AMG was added to all the wells in plate in the same amount, and the cells were cultured in a cell culture incubator for 2 hours at 37° C., 5% CO2. The cells were washed three times with cold Dulbecco's Phosphate buffer saline (DPBS) and then lysed with 0.2 N NaOH for 10 minutes at room temperature with shaking. After addition of MicroScint 20 fluid, the cells were allowed to shake for 15 minutes at room temperature, and then the activity of [^14C]AMG was quantified on a β-scintillation counter. IC50 of each of the compounds was determined by GraphPad Prism 4.0 software.

[2] = biological target: T2, hSGLT2 (Homo sapiens, UniProt P31639); test: [14C]-AMG uptake assay in HEK293-hSGLT2 cells; assay type: cell-based; details: HEK293-hSGLT2 stable cell line
T2 construct: FLAG; expressed in transfected cells
T2 sequence (P31639 1-672): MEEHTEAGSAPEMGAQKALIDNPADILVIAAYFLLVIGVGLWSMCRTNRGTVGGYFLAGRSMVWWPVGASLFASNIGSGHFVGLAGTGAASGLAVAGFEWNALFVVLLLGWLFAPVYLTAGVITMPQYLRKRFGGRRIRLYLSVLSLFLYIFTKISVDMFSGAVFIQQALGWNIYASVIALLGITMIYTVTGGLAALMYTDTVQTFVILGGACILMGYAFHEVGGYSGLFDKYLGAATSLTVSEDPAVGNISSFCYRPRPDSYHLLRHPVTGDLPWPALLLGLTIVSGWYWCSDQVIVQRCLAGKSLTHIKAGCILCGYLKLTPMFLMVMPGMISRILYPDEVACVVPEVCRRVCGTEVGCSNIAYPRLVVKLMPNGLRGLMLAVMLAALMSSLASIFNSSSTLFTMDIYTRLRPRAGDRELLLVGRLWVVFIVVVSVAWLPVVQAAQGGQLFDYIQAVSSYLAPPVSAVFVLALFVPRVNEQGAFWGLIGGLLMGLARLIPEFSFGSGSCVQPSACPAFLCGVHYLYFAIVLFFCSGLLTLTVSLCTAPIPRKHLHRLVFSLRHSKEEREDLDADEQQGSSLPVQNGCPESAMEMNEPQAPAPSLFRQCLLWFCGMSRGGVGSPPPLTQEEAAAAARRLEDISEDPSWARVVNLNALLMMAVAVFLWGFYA
Procedure: as §1, §2, §3

[3] = tested on: C57BL/6 male mice; test: Urinary glucose excretion test (UGE test); assay type: in vivo; details: 3 mg/kg oral (Examples 13 to 38), 2 g/kg glucose after 30 minutes, urine collected for 24 hours
Procedure: The pharmaceutical efficacies of the compounds prepared in the Examples were investigated by a urinary glucose excretion test using C57BL/6 male mice (8-week-old, prepared and supplied from Orient Chemical Co. Ltd.).
Two mice were used in each group. The mice were fasted for 16 hours, and the compound of each of the Examples [10 mg/kg of the compound of Examples 1 to 12; and 3 mg/kg of the compound of Examples 13 to 38] was dissolved in a vehicle [a mixed solution of 5% 1-methyl-2-pyrrolidinone, 20% PEG, and 75% 20 mM sodium diphosphate], and orally administered to the mice. After 30 minutes, 2 g/kg of glucose was orally administered to the mice in all the groups. Thereafter, the mice were immediately put into a metabolic cage, and urine was collected for 24 hours. The mice were freely fed an hour after the administration of glucose.
The results obtained from the test, that is, the results obtained by measuring urinary glucose excretion in the C57BL/6 male mice according to the compounds of the Examples, are listed in Table 5.

| IC50 [1] [nM] | IC50 [2] [nM] | Compound | UGE [3] [mg/20 g/24 hr] |
| --- | --- | --- | --- |
| 31.9 | 4 | COc1ccc(Cc2cc([C@@H]3O[C@H](CO)[C@@H](O)[C@H](O)[C@H]3O)cc3c2CCC3)cc1 [Example 14, (2R,3S,4R,5R,6S)-2-(hydroxymethyl)-6-(7-(4-methoxybenzyl)-2,3-dihydro-1H-inden-5-yl)tetrahydro-2H-pyran-3,4,5-triol] |  |
| 7.7 | 9.6 | Cc1ccc(Cc2cc([C@@H]3O[C@H](CO)[C@@H](O)[C@H](O)[C@H]3O)cc3c2CCC3)cc1 [Example 15, (2R,3S,4R,5R,6S)-2-(hydroxymethyl)-6-(7-(4-methylbenzyl)-2,3-dihydro-1H-inden-5-yl)tetrahydro-2H-pyran-3,4,5-triol] | 8.1 |
| 54.6 | 5.6 | CCc1ccc(Cc2cc([C@@H]3O[C@H](CO)[C@@H](O)[C@H](O)[C@H]3O)cc3c2CCC3)cc1 [Example 16, (2S,3R,4R,5S,6R)-2-(7-(4-ethylbenzyl)-2,3-dihydro-1H-inden-5-yl)-6-(hydroxymethyl)tetrahydro-2H-pyran-3,4,5-triol] | 16.4 |
| 511 | 9.2 | OC[C@H]1O[C@@H](c2cc3c(c(Cc4ccc(OC(F)(F)F)cc4)c2)CCC3)[C@H](O)[C@@H](O)[C@@H]1O [Example 22, (2R,3S,4R,5R,6S)-2-(hydroxymethyl)-6-(7-(4-(trifluoromethoxy)benzyl)-2,3-dihydro-1H-inden-5-yl)tetrahydro-2H-pyran-3,4,5-triol] | 9.6 |
| 267 | 6.8 | OC[C@H]1O[C@@H](c2cc3c(c(Cc4ccc(C(F)(F)F)cc4)c2)CCC3)[C@H](O)[C@@H](O)[C@@H]1O [Example 24, (2R,3S,4R,5R,6S)-2-(hydroxymethyl)-6-(7-(4-(trifluoromethyl)benzyl)-2,3-dihydro-1H-inden-5-yl)tetrahydro-2H-pyran-3,4,5-triol] |  |
| 35.2 | 3.5 | OC[C@H]1O[C@@H](c2cc3c(c(Cc4ccc5c(c4)OCO5)c2)CCC3)[C@H](O)[C@@H](O)[C@@H]1O [Example 29, (2S,3R,4R,5S,6R)-2-(7-(benzo[d][1,3]dioxol-5-ylmethyl)-2,3-dihydro-1H-inden-5-yl)-6-(hydroxymethyl)tetrahydro-2H-pyran-3,4,5-triol] |  |
| 55.2 | 3.5 | OC[C@H]1O[C@@H](c2cc3c(c(Cc4ccc5c(c4)OCCO5)c2)CCC3)[C@H](O)[C@@H](O)[C@@H]1O [Example 30, (2S,3R,4R,5S,6R)-2-(7-((2,3-dihydrobenzo[1,4]dioxin-6-yl)methyl)-2,3-dihydro-1H-inden-5-yl)-6-(hydroxymethyl)tetrahydro-2H-pyran-3,4,5-triol] | 7.2 |
| 178 | 5.8 | CC(C)(C)c1ccc(Cc2cc([C@@H]3O[C@H](CO)[C@@H](O)[C@H](O)[C@H]3O)cc3c2CCC3)cc1 [Example 31, (2S,3R,4R,5S,6R)-2-(7-(4-(tert-butyl)benzyl)-2,3-dihydro-1H-inden-5-yl)-6-(hydroxymethyl)tetrahydro-2H-pyran-3,4,5-triol] |  |
| 63.2 | 4.5 | Cc1ccc(Cc2cc([C@@H]3O[C@H](CO)[C@@H](O)[C@H](O)[C@H]3O)cc3c2CCC3)cc1C [Example 32, (2S,3R,4R,5S,6R)-2-(7-(3,4-dimethylbenzyl)-2,3-dihydro-1H-inden-5-yl)-6-(hydroxymethyl)tetrahydro-2H-pyran-3,4,5-triol] |  |
| 553 | 13.5 | OC[C@H]1O[C@@H](c2cc3c(c(Cc4ccc(OCC(F)(F)F)cc4)c2)CCC3)[C@H](O)[C@@H](O)[C@@H]1O [Example 34, (2R,3S,4R,5R,6S)-2-(hydroxymethyl)-6-(7-(4-(2,2,2-trifluoroethoxy)benzyl)-2,3-dihydro-1H-inden-5-yl)tetrahydro-2H-pyran-3,4,5-triol] |  |
| 84.9 | 9 | OC[C@H]1O[C@@H](c2cc3c(c(Cc4ccc(-c5ccc(F)cc5)s4)c2)CCC3)[C@H](O)[C@@H](O)[C@@H]1O [Example 36, (2S,3R,4R,5S,6R)-2-(7-((5-(4-fluorophenyl)thiophen-2-yl)methyl)-2,3-dihydro-1H-inden-5-yl)-6-(hydroxymethyl)tetrahydro-2H-pyran-3,4,5-triol] |  |
| 19.8 | 9 | OC[C@H]1O[C@@H](c2cc3c(c(Cc4cc5ccccc5s4)c2)CCC3)[C@H](O)[C@@H](O)[C@@H]1O [Example 37, (2S,3R,4R,5S,6R)-2-(7-(benzo[b]thiophen-2-ylmethyl)-2,3-dihydro-1H-inden-5-yl)-6-(hydroxymethyl)tetrahydro-2H-pyran-3,4,5-triol] | 14.5 |
| 24.9 | 5.8 | OC[C@H]1O[C@@H](c2cc3c(c(Cc4ccc(C5CC5)cc4)c2)CCC3)[C@H](O)[C@@H](O)[C@@H]1O [Example 38, (2S,3R,4R,5S,6R)-2-(7-(4-cyclopropylbenzyl)-2,3-dihydro-1H-inden-5-yl)-6-(hydroxymethyl)tetrahydro-2H-pyran-3,4,5-triol] | 14.8 |
| 210 | 28.8 | OC[C@H]1O[C@@H](c2cc3c(c(Cc4ccc(Cl)cc4)c2)CCC3)[C@H](O)[C@@H](O)[C@@H]1O [Example 40, (2S,3R,4R,5S,6R)-2-(7-(4-chlorobenzyl)-2,3-dihydro-1H-inden-5-yl)-6-(hydroxymethyl)tetrahydro-2H-pyran-3,4,5-triol] |  |
